Laboratory results taken from US20250339409A1, “USES OF PAN BET INHIBITORS” (VYNE THERAPEUTICS INC., priority 2021, published 2025).
Values joined by “and” are separate entries in the source; they are usually repeats but may differ in a detail not shown here. Equal values may be shown once.

Tested on: incisional skin wounds
Assay: Incisional skin wound healing model (external and internal scoring, time to complete healing, body weight)
Assay type: in vivo, female Hairless Skh-1 mice
Set-up: key to Mean internal scores, Score presence tissue mass: 0 = no tissue mass, 1 = small, 2 = moderate, 3 = large; key to Global external score per day (mean): sum of the scores of 4 external wound parameters; MBWC D 16 − D 0, individual mouse: unit not given here
Conditions: for Global external score per day (mean) / Mean score swelling per day / Mean score visibility (external) per day: BETi1 at 1%; for Mean score length (mm) per day / Mean score width (mm) per day: skin wound; for Body weight, individual mouse: in g (unit assumed)
Method: Incisional wounds (10 mm) are made over the entire thickness of the skin (about 1 mm) on both flanks of nine female Hairless Skh-1 mice divided into 3 groups (n=3) according to body weight on D0. Formulations or hydroalcoholic gel are administered topically once daily starting immediately after the induction of skin wounds on DO until the complete healing of both wounds of each mouse, at the same time in the morning. The effects of treatment on wound healing with the formulation used containing one dose of the novel BETi, the vehicle of this new compound (negative control) and a hydroalcoholic gel preventing wound healing (positive control), is evaluated by the daily scoring of the healing process externally. The scoring is based on the daily measurement of the length and width, swelling of each induced skin wound from DO until complete healing, the determination of the time required for complete healing of each of induced skin wounds, and after complete healing of both wounds of a same mouse, by the scoring of the healing process internally by evaluation of the visibility of the scar, the presence of a tissue mass (collagen+elastin) under the scar and the level of vascularization of the scar.
Mice are weighed 3 times per week from the day of induction of skin wounds (D0) until the complete healing of both wounds of each mouse and before sacrifice. The viability and the well being of mice of each cage is checked and recorded daily.
The scoring takes into account the following 4 parameters: The length of the skin wounds measured with a ruler.
The width of the skin wounds with the following scoring grid: • 0=skin wound completely closed, • 1=skin wound almost completely closed, • 2=skin wound moderately closed, • 3=skin wound wide open.
The swelling of the skin wounds with the following scoring grid: • 0=skin wound no or no longer swollen, • 1=skin wound slightly swollen, • 2=skin wound moderately swollen, • 3=skin wound highly swollen.
The visibility of the skin wounds with the following scoring grid: • 0=skin wound no or no longer visible, • 1=skin wound slightly visible, • 2=skin wound moderately visible, • 3=skin wound highly visible.
The sum of the scores of these 4 parameters gives the Global External Score of Wound Healing (GESWH). The time required for complete healing of each induced skin wound is also determined.
After the complete healing of both skin wounds of each mouse, mice are sacrificed, and the scoring of the healing process internally is performed for each wound and takes into account the following 3 parameters: • visibility of the scar with the following scoring grid: • 0=scar highly visible • 1=scar moderately visible, • 2=scar slightly visible • 3=scar non-visible.
The presence of a tissue mass (collagen+elastin) under the scar with the following scoring grid: • 0=no tissue mass present, • 1=small tissue mass present, • 2=moderate tissue mass present, • 3=large tissue mass present.
The level of vascularization of the scar with the following scoring grid: • 0=important vascularization of the scar, • 1=moderate vascularization of the scar, • 2=low vascularization of the scar, • 3=very little vascularization of the scar.
The sum of the scores of these 3 parameters gives the Global Internal Score of Wound Healing (GISWH). A macroscopic observation of all organs of the abdominal and thoracic cavities is performed on all mice. Any other organ with abnormal shape, size or colour is listed.
The body weight, mean body weight change (MBWC) of mice, the external scores of the length, width, swelling and visibility of skin wounds as well as the Global External Score of Wound Healing (GESWH), the time required for complete healing of skin wounds, and the internal scores of the visibility, the presence of a tissue mass and the vascularization of scars as well as the Global Interna Score of Wound Healing (GISWH) are analyzed at the end of the experimentation. […]

Cn1cc(-c2cccc(O)c2Oc2ccccc2)c2cc[nH]c2c1=O [BETi1]
Global external score per day (mean) (D 0): 15.00
Mean score swelling per day (D 0): 0.00
Mean score visibility (external) per day (D 0): 3.00
Global external score per day (mean) (D 1): 16.33
Mean score swelling per day (D 1): 1.33
Mean score visibility (external) per day (D 1): 3.00
Global external score per day (mean) (D 2): 17.67
Mean score swelling per day (D 2): 2.00
Mean score visibility (external) per day (D 2): 3.00
Global external score per day (mean) (D 3): 18.17
Mean score swelling per day (D 3): 2.00
Mean score visibility (external) per day (D 3): 3.00
Global external score per day (mean) (D 4): 17.50
Mean score swelling per day (D 4): 2.17
Mean score visibility (external) per day (D 4): 3.00
Global external score per day (mean) (D 5): 15.00
Mean score swelling per day (D 5): 2.17
Mean score visibility (external) per day (D 5): 3.00
Global external score per day (mean) (D 6): 14.17
Mean score swelling per day (D 6): 2.17
Mean score visibility (external) per day (D 6): 3.00
Global external score per day (mean) (D 7): 13.67
Mean score swelling per day (D 7): 2.50
Mean score visibility (external) per day (D 7): 3.00
Global external score per day (mean) (D 8): 13.50
Mean score swelling per day (D 8): 2.33
Mean score visibility (external) per day (D 8): 2.83
Global external score per day (mean) (D 9): 13.33
Mean score swelling per day (D 9): 2.17
Mean score visibility (external) per day (D 9): 2.83
Global external score per day (mean) (D 10): 12.00
Mean score swelling per day (D 10): 2.17
Mean score visibility (external) per day (D 10): 2.83
Global external score per day (mean) (D 11): 10.33
Mean score swelling per day (D 11): 1.83
Mean score visibility (external) per day (D 11): 2.67
Global external score per day (mean) (D 12): 8.00
Mean score swelling per day (D 12): 1.67
Mean score visibility (external) per day (D 12): 2.17
Global external score per day (mean) (D 13): 5.17
Mean score swelling per day (D 13): 1.67
Mean score visibility (external) per day (D 13): 1.17
Global external score per day (mean) (D 14): 4.50
Mean score swelling per day (D 14): 1.67
Mean score visibility (external) per day (D 14): 0.83
Global external score per day (mean) (D 15): 3.00
Mean score swelling per day (D 15): 1.50
Mean score visibility (external) per day (D 15): 0.50
Global external score per day (mean) (D 16): 2.17
Mean score swelling per day (D 16): 1.17
Mean score visibility (external) per day (D 16): 0.33
Global external score per day (mean) (D 17): 0.50
Mean score swelling per day (D 17): 0.50
Mean score visibility (external) per day (D 17): 0.00
Mean internal scores, Global internal score (after complete healing): 2.00
Mean internal scores, Score presence tissue mass (after complete healing): 0.50
Mean internal scores, Score vascularization (after complete healing): 1.33
Mean internal scores, Score visibility scar (after complete healing): 0.17
global external lesion severity score (compared to hydroalcoholic gel, beginning at treatment day 5): statistically significant decrease (improvement) in global external lesion severity score
complete healing earlier compared to hydroalcoholic gel (incisional lesions): approximately 5 days
mean time to heal (incisional lesions): 15.5 days
Mean time for complete wound healing, Day for complete healing (incisional wounds, once daily topical): 15.50 days
swelling at wound edges (significantly different on Days 15, 16 and 17 compared to vehicle and hydroalcoholic gel): rapidly reduced the swelling at wound edges
Mean score length (mm) per day (D 0): 10.00 mm
Mean score width (mm) per day (D 0): 2.00 mm
Mean score length (mm) per day (D 1): 10.00 mm
Mean score width (mm) per day (D 1): 2.00 mm
Mean score length (mm) per day (D 2): 10.00 mm
Mean score width (mm) per day (D 2): 2.67 mm
Mean score length (mm) per day (D 3): 10.00 mm
Mean score width (mm) per day (D 3): 2.83 mm
Mean score length (mm) per day (D 4): 9.33 mm
Mean score width (mm) per day (D 4): 3.00 mm
Mean score length (mm) per day (D 5): 7.50 mm
Mean score width (mm) per day (D 5): 2.33 mm
Mean score length (mm) per day (D 6): 6.50 mm
Mean score width (mm) per day (D 6): 2.50 mm
Mean score length (mm) per day (D 7): 5.67 mm
Mean score width (mm) per day (D 7): 2.50 mm
Mean score length (mm) per day (D 8): 5.67 mm
Mean score width (mm) per day (D 8): 2.67 mm
Mean score length (mm) per day (D 9): 5.50 mm
Mean score width (mm) per day (D 9): 2.83 mm
Mean score length (mm) per day (D 10): 4.83 mm
Mean score width (mm) per day (D 10): 2.17 mm
Mean score length (mm) per day (D 11): 3.83 mm
Mean score width (mm) per day (D 11): 2.00 mm
Mean score length (mm) per day (D 12): 2.67 mm
Mean score width (mm) per day (D 12): 1.50 mm
Mean score length (mm) per day (D 13): 1.50 mm
Mean score width (mm) per day (D 13): 0.83 mm
Mean score length (mm) per day (D 14): 1.17 mm
Mean score width (mm) per day (D 14): 0.83 mm
Mean score length (mm) per day (D 15): 0.50 mm
Mean score width (mm) per day (D 15): 0.50 mm
Mean score length (mm) per day (D 16): 0.33 mm
Mean score width (mm) per day (D 16): 0.33 mm
Mean score length (mm) per day (D 17): 0.00 mm
Mean score width (mm) per day (D 17): 0.00 mm
tolerability within the lesion sites and in general (throughout the treatment period): appeared to be well-tolerated
Mean body weight (gram) per day (wound model, D 0): 26.61 gram
Body weight, individual mouse (wound model, D 0, listed as BETi11.0%): 25.00 and 28.64 and 26.19
Mean body weight (gram) per day (wound model, D 2): 25.53 gram
Mean body weight (gram) per day (wound model, D 4): 25.70 gram
Mean body weight (gram) per day (wound model, D 7): 26.10 gram
Mean body weight (gram) per day (wound model, D 9): 26.85 gram
Mean body weight (gram) per day (wound model, D 11): 27.01 gram
Mean body weight (gram) per day (wound model, D 13): 26.88 gram
Mean body weight (gram) per day (wound model, D 16): 27.33 gram
Body weight, individual mouse (wound model, D 16, listed as BETi11.0%): 25.10 and 28.47 and 28.43
MBWC D 16 − D 0, individual mouse (wound model, listed as BETi11.0%): 0.10 and −0.17 and 2.24
